Experimental data from PubChem BioAssay AID248 (DTP/NCI, 2004).
“And” between values parts separate entries of the source, which are not always exact repeats. Identical values can stand only once. Toxic doses and inconclusive results are not listed.

Test system: L1210 leukemia ip in BDF1 mice, survival T/C
Assay: NCI In Vivo Anticancer Drug Screen. Data for tumor model L1210 Leukemia (intraperitoneal) in B6D2F1 (BDF1) mice
Settings: endpoint: mean survival time, higher = longer survival
Outline: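 Transplantable tumor model; survival measured in treated vs vehicle control mice. Value = treated/control.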

[1] = dose: 75.0 mg/kg/injection, schedule: Q01DX001 (ip), vehicle: saline

Compound: ClCC#Cc1ccccc1
- T/C (dose: 12.0 mg/kg/injection, schedule: Q01DX009 (ip), vehicle: saline): 100 % of control
- T/C (dose: 25.0 mg/kg/injection, schedule: Q01DX009 (ip), vehicle: saline): 100 % of control
- T/C (dose: 50.0 mg/kg/injection, schedule: Q01DX009 (ip), vehicle: saline): 101 % of control
- T/C (dose: 100.0 mg/kg/injection, schedule: Q04DX003 (ip), vehicle: saline): 103 % of control
- T/C (dose: 200.0 mg/kg/injection, schedule: Q04DX003 (ip), vehicle: saline): 92 % of control
- T/C (dose: 400.0 mg/kg/injection, schedule: Q04DX003 (ip), vehicle: saline): 91 % of control

Compound: CC1CCC/C(=N/Nc2ccc3ccccc3n2)C1 (centres undefined)
- T/C [1]: 113 % of control

Compound: O=[N+]([O-])c1cccc(N=Cc2ccccc2O)c1
- T/C (dose: 100.0 mg/kg/injection, schedule: Q01DX001 (ip), vehicle: Klucel (hydroxypropylcellulose) (HPC)): 93 % of control
- T/C (dose: 200.0 mg/kg/injection, schedule: Q01DX001 (ip), vehicle: Klucel (hydroxypropylcellulose) (HPC)): 88 % of control
- T/C (dose: 400.0 mg/kg/injection, schedule: Q01DX001 (ip), vehicle: Klucel (hydroxypropylcellulose) (HPC)): 88 % of control

Compound: Cc1c2ccccc2c(C)c2c1cc(CO)c1ccccc12
- T/C (dose: 100.0 mg/kg/injection, schedule: Q04DX002 (ip), vehicle: Klucel (hydroxypropylcellulose) (HPC)): 97 % of control
- T/C (dose: 200.0 mg/kg/injection, schedule: Q04DX002 (ip), vehicle: Klucel (hydroxypropylcellulose) (HPC)): 104 % of control
- T/C (dose: 400.0 mg/kg/injection, schedule: Q04DX002 (ip), vehicle: Klucel (hydroxypropylcellulose) (HPC)): 89 % of control

Compound: CC1CCCCC1C(=O)N1CCCCC1 (centres undefined)
- T/C (dose: 100.0 mg/kg/injection, schedule: Q04DX002 (ip), vehicle: saline): 117 % of control
- T/C (dose: 200.0 mg/kg/injection, schedule: Q04DX002 (ip), vehicle: saline): 96 % of control
- T/C (dose: 400.0 mg/kg/injection, schedule: Q04DX002 (ip), vehicle: saline): 101 % of control

Compound: Nc1ncnc2c1c(-c1nc(=S)[nH][nH]1)cn2C1OC(CO)C(O)C1O (centres undefined)
- T/C (dose: 100.0 mg/kg/injection, schedule: Q01DX005 (ip), vehicle: saline): 106 % of control
- T/C (dose: 200.0 mg/kg/injection, schedule: Q01DX005 (ip), vehicle: saline): 108 % of control

Compound: N#C/C(=C/c1cc([N+](=O)[O-])c(O)c([N+](=O)[O-])c1)C(N)=O
- T/C [1]: 96 % of control
- T/C (dose: 150.0 mg/kg/injection, schedule: Q01DX001 (ip), vehicle: saline): 98 % of control
- T/C (dose: 300.0 mg/kg/injection, schedule: Q01DX001 (ip), vehicle: saline): 95 % of control

Compound: CC1CN=C(c2cccc(NC(=O)Nc3ccc(NC(=O)Nc4cccc(C5=NCC(C)N5)c4)cc3)c2)N1 (centres undefined)
- T/C (dose: 4.5 mg/kg/injection, schedule: Q01DX Z (ip), vehicle: carboxymethylcellulose (CMC)): 118 % of control
- T/C (dose: 36.0 mg/kg/injection, schedule: Q01DX Z (ip), vehicle: carboxymethylcellulose (CMC)): 202 % of control and 217 % of control
- T/C (dose: 45.0 mg/kg/injection, schedule: Q01DX Z (ip), vehicle: carboxymethylcellulose (CMC)): 153 % of control
- T/C (dose: 62.0 mg/kg/injection, schedule: Q01DX Z (oral), vehicle: carboxymethylcellulose (CMC)): 113 % of control
- T/C (dose: 63.0 mg/kg/injection, schedule: Q01DX Z (ip), vehicle: carboxymethylcellulose (CMC)): 112 % of control
- T/C (dose: 72.0 mg/kg/injection, schedule: Q01DX Z (ip), vehicle: carboxymethylcellulose (CMC)): 101 % of control and 111 % of control
- T/C (dose: 125.0 mg/kg/injection, schedule: Q01DX Z (oral), vehicle: carboxymethylcellulose (CMC)): 113 % of control
- T/C (dose: 250.0 mg/kg/injection, schedule: Q01DX Z (oral), vehicle: carboxymethylcellulose (CMC)): 115 % of control
- T/C (dose: 500.0 mg/kg/injection, schedule: Q01DX Z (oral), vehicle: carboxymethylcellulose (CMC)): 109 % of control

Compound: CC[n+]1cccc(NC(=O)c2ccc(NC(=O)c3ccc(C(=O)Nc4ccc(C(=O)Nc5ccc[n+](CC)c5)cc4)cc3)cc2)c1
- T/C (dose: 0.25 mg/kg/injection, schedule: Q01DX009 (ip), vehicle: saline): 110 % of control
- T/C (dose: 4.0 mg/kg/injection, schedule: Q01DX001 (ip), vehicle: saline): 115 % of control and 117 % of control
- T/C (dose: 4.0 mg/kg/injection, schedule: Q01DX009 (ip), vehicle: saline): 157 % of control and 160 % of control
- T/C (dose: 4.4 mg/kg/injection, schedule: Q01DX Z (ip), vehicle: carboxymethylcellulose (CMC)): 120 % of control
- T/C (dose: 6.7 mg/kg/injection, schedule: Q01DX Z (ip), vehicle: carboxymethylcellulose (CMC)): 92 % of control
- T/C (dose: 8.0 mg/kg/injection, schedule: Q01DX009 (ip), vehicle: saline): 228 % of control
- T/C (dose: 16.0 mg/kg/injection, schedule: Q01DX009 (ip), vehicle: saline): 121 % of control and 124 % of control
- T/C (dose: 32.0 mg/kg/injection, schedule: Q01DX001 (ip), vehicle: saline): 189 % of control
- T/C (dose: 64.0 mg/kg/injection, schedule: Q01DX001 (ip), vehicle: saline): 229 % of control
